Laboratory results: US20250281464A1, “TREATMENT OF PATHOGENIC NEISSERIA SP. INFECTION WITH TRIAZOLE ANTIFUNGAL AGENTS” (Virginia Tech Intellectual Properties, Inc., priority 2022, published 2025)
≈ marks a conversion by molar mass, not a printed value. Where two headings read alike, the source gives them in different places.

How the values were obtained:
N. gonorrhoeae isolates = experiment: MIC against panel of N. gonorrhoeae clinical isolates; assay type: cell-based, Neisseria gonorrhoeae
L. crispatus = experiment: MIC against commensal vaginal Lactobacillus strains; assay type: cell-based, Lactobacillus crispatus; conditions: Table 6, L. crispatus (3 strains)
Excerpt: (§1) N. gonorrhoeae pathogenesis greatly depends on colonization of the reproductive tract. One of the natural barriers of such colonization is an intact healthy microbiome. Species of lactobacilli present in the genitourinary tract play a significant role in hindering colonization by Neisseria(1).
(§2) A healthy vaginal microbiome that is dominated by Lactobacillus spp. is less susceptible to N. gonorrhoeae infection and other sexually transmitted diseases (STDs). […] We tested the activity of azoles against important members of healthy vaginal microbiota that inhibit N. gonorrhoeae colonization.

L. gasseri = experiment: as above; assay type: cell-based, Lactobacillus gasseri; conditions: Table 6, L. gasseri (4 strains)
Excerpt: as §1, §2

L. jensenii = experiment: as above; assay type: cell-based, Lactobacillus jensenii; conditions: Table 6, L. jensenii (7 strains)
Excerpt: as §1, §2

L. johnsonii = experiment: as above; assay type: cell-based, Lactobacillus johnsonii; conditions: Table 6, L. johsonii (2 strains)
Excerpt: as §1, §2

[1] = test system: commensal vaginal lactobacilli strains; experiment: MIC against all commensal vaginal Lactobacillus strains tested; assay type: cell-based, Lactobacillus spp.
Excerpt: as §1, §2

[2] = MIC against normal gut microbiota; assay type: cell-based
Excerpt: (§3) Disrupting the intestinal microbiota using broad-spectrum antimicrobial therapy increases the susceptibility of hosts to C. difficile colonization.

Bacteroides dorei = experiment: MIC against normal gut microbiota; assay type: cell-based; conditions: Bacteroides dorei (2 strains)
Excerpt: as §3

Bacteroides fragilis = experiment: MIC against normal gut microbiota; assay type: cell-based; conditions: Bacteroides fragilis (4 strains)
Excerpt: as §3

[3] = test system: Bifidobacterium angulatum; experiment: MIC against normal gut microbiota; assay type: cell-based; conditions: Bifidobacterium angulatum (1 strain)
Excerpt: as §3

Enterococcus faecalis = experiment: MIC against normal gut microbiota; assay type: cell-based; conditions: Enterococcus faecalis (1 strain)
Excerpt: as §3

Enterococcus faecium = experiment: MIC against normal gut microbiota; assay type: cell-based; conditions: Enterococcus faecium (1 strain)
Excerpt: as §3

Escherichia coli = experiment: MIC against normal gut microbiota; assay type: cell-based; conditions: Escherichia coli (1 strain)
Excerpt: as §3

Lactobacillus brevis = experiment: MIC against normal gut microbiota; assay type: cell-based; conditions: Lactobacillus brevis (1 strain)
Excerpt: as §3

Lactobacillus casei = experiment: MIC against normal gut microbiota; assay type: cell-based; conditions: Lactobacillus casei (1 strain)
Excerpt: as §3

Lactobacillus rhamnosus = experiment: MIC against normal gut microbiota; assay type: cell-based; conditions: Lactobacillus rhamnosus (1 strain)
Excerpt: as §3

Staphylococcus aureus = experiment: MIC against normal gut microbiota; assay type: cell-based; conditions: Staphylococcus aureus (1 strain)
Excerpt: as §3

[4] = Table 1, 104 N. gonorrhoeae isolates
[5] = Table 3, 103 N. gonorrhoeae isolates with different resistance profiles
[6] = Bacteroides adolescentis (2 strains)

| Structure (SMILES) | MIC Range (N. gonorrhoeae isolates; [4]) [µg/mL] | MIC Range (N. gonorrhoeae isolates; [5]) [µg/mL] | MIC Range (L. crispatus) [µg/mL] | MIC Range (L. gasseri) [µg/mL] | MIC Range (L. jensenii) [µg/mL] | MIC Range (L. johnsonii) [µg/mL] | MIC Range [2, 6] [µg/mL] | MIC Range ([2]; Bacteroides breve (2 strains)) [µg/mL] | MIC Range ([2]; Bacteroides longum (2 strains)) [µg/mL] | MIC Range (Bacteroides dorei) [µg/mL] | MIC Range (Bacteroides fragilis) [µg/mL] | MIC Range [3] [µg/mL] | MIC Range (Enterococcus faecalis) [µg/mL] | MIC Range (Enterococcus faecium) [µg/mL] | MIC Range (Escherichia coli) [µg/mL] | MIC Range (Lactobacillus brevis) [µg/mL] | MIC Range (Lactobacillus casei) [µg/mL] | MIC Range (Lactobacillus rhamnosus) [µg/mL] | MIC Range (Staphylococcus aureus) [µg/mL] | also measured |
| --- | --- | --- | --- | --- | --- | --- | --- | --- | --- | --- | --- | --- | --- | --- | --- | --- | --- | --- | --- | --- |
| C[C@@H]1CN2c3c(cc4c(N5C(=O)OC[C@@H]5C)noc4c3F)CC3(C(=O)NC(=O)NC3=O)[C@H]2[C@H](C)O1 [Zoliflodacin] | 0.004 to 0.5 | 0.004 to 0.25 | ≤1 | ≤1 | ≤1 | ≤1 | 1 (≈ 2.05 µM) | 4 (≈ 8.21 µM) | 1 to 2 | 0.5 to 1 | 2 to 8 | 1 (≈ 2.05 µM) | 0.5 (≈ 1.03 µM) | 2 (≈ 4.1 µM) | 0.25 (≈ 0.513 µM) | 1 (≈ 2.05 µM) | <0.125 | 0.125 (≈ 0.256 µM) | 0.125 (≈ 0.256 µM) | MIC50 (N. gonorrhoeae isolates; Neisseria gonorrhoeae): 0.06 µg/mL (≈ 0.123 µM); MIC90 (N. gonorrhoeae isolates; Neisseria gonorrhoeae): 0.125 µg/mL (≈ 0.256 µM); MIC50 (N. gonorrhoeae isolates; [5]): 0.06 µg/mL (≈ 0.123 µM); MIC90 (N. gonorrhoeae isolates; [5]): 0.125 µg/mL (≈ 0.256 µM); MIC ([1]; Lactobacillus): < 1 µg/mL |
| O=c1ccc2ncc(=O)n3c2n1C[C@H]3CN1CCC(NCc2cc3c(cn2)OCCC3)CC1 [Gepotidacin] | 0.03 to 8 | 0.03 to 8 | ≤1 | ≤1 | ≤1 | ≤1 | <0.125 | <0.125 | 0.5 (≈ 1.11 µM) | 0.125 (≈ 0.279 µM) | 0.25 to 2 | 0.125 (≈ 0.279 µM) | 1 (≈ 2.23 µM) | 2 (≈ 4.46 µM) | 0.125 (≈ 0.279 µM) | 0.5 (≈ 1.11 µM) | 0.25 (≈ 0.557 µM) | 0.5 (≈ 1.11 µM) | 0.25 (≈ 0.557 µM) | MIC50 (N. gonorrhoeae isolates; Neisseria gonorrhoeae, Table 1, 104 N. gonorrhoeae isolates, read-out: MIC50): 0.25 µg/mL (≈ 0.557 µM); MIC90 (N. gonorrhoeae isolates; Neisseria gonorrhoeae, Table 1, 104 N. gonorrhoeae isolates, read-out: MIC90): 0.5 µg/mL (≈ 1.11 µM); MIC50 (N. gonorrhoeae isolates; Neisseria gonorrhoeae, Table 3, 103 N. gonorrhoeae isolates with different resistance profiles, read-out: MIC50): 0.5 µg/mL (≈ 1.11 µM); MIC90 (N. gonorrhoeae isolates; Neisseria gonorrhoeae, Table 3, 103 N. gonorrhoeae isolates with different resistance profiles, read-out: MIC90): 1 µg/mL (≈ 2.23 µM); MIC ([1]; all species/strains of Lactobacillus tested (Example 2), read-out: MIC): < 1 µg/mL |
